Converted amounts (≈) assume the structure as drawn. “Also recorded” adds a separate entry of the source. Read-outs that look alike come from different tables or passages of the source.
Tests used:
Mtb H37Rv [1] = test: microbe, parasite or virus in culture; assay type: cell-based; details: Mycobacterium tuberculosis, read-out: MIC BDQ values in six carbon sources
Mtb Rv0678 RAVs = system: Mtb Rv0678 RAVs; parameters: method as in Sonnenkalb et al., 2023; Villellas et al., 2017; details: Rv0678 RAVs in baseline isolates of MDR-TB patients; ref Sonnenkalb et al., 2023; Villellas et al., 2017; cited from earlier work
M. tuberculosis = system: M. tuberculosis; parameters: method as in Lounis et al. (2016); details: polypropylene plates in comparison with polystyrene; ref Lounis et al. (2016); cited from earlier work
[2] = system: regrowth TKA isolates (Mtb H37Rv); test: microbe, parasite or virus in culture; assay type: cell-based, Mycobacterium tuberculosis; details: for MIC: Mycobacterium tuberculosis
Mtb H37Rv [3] = test: Dose response time kill assays (TKA), CFU enumeration; assay type: cell-based, Mycobacterium tuberculosis
[4] = Effect of tyloxapol on TBAJ-587 recovery in ST broth without bacteria; assay type: physicochemical; details: ST broth with vs without tyloxapol, no bacteria, polystyrene flasks, 28 days
Description: A low (0.16 mg/L) and a high concentration (1.6 mg/L) were tested and samples taken and quantified at 0, 1, 10 and 28 days after compound addition. Parallel conditions with propranolol (2 μM and 0.2 μm) were included as a drug control; two time-points were sampled for quantification at days 0 and 28 after compound addition. All 648 samples were measured in technical duplicates and verapamil was used as internal standard.

[5] = concentrations equal or higher than 5x MIC

| Structure (SMILES) | MIC (Mtb H37Rv [1]) | increase in MIC (Mtb Rv0678 RAVs) | increase in the MIC (M. tuberculosis) | MIC increase compared to the wild-type baseline [2] | MIC ([2]; H37RV) | MIC ([2]; read-out: MIC values for TBAJ-587, all regrowth isolates) | effect in TKA (Mtb H37Rv [3]; 1x MIC and 2x MIC) | bacterial regrowth (Mtb H37Rv [3]; 1x MIC and 2x MIC, day 28) | bacterial regrowth after 28 days of treatment (Mtb H37Rv [3]; [5]) | time to cleared cultures (bacterial counts under the limit of quantification) (Mtb H37Rv [3]; [5]) | effect in TKA (Mtb H37Rv [3]; concentrations equal to and above 5x MIC) | effect of 0.05% tyloxapol on recovery [4] |
| --- | --- | --- | --- | --- | --- | --- | --- | --- | --- | --- | --- | --- |
| COc1nc2ccc(Br)cc2cc1[C@@H](c1ccccc1)[C@@](O)(CCN(C)C)c1cccc2ccccc12 [BDQ, bedaquiline] | 0.063 to 0.25 µg/mL (≈ 0.113 to 0.45 µM) | 2–8 fold | 4 fold | – | – | – | – | – | – | – | – | – |
| COc1cc([C@](O)(CCN(C)C)[C@@H](c2cc3cc(Br)ccc3nc2OC)c2cccc(OC)c2F)cc(OC)n1 [TBAJ-587] | – | – | – | 4 fold | 0.125 µg/mL (≈ 0.203 µM) | 0.125 to 0.25 µg/mL (≈ 0.203 to 0.407 µM) | bacteriostatic effect | resumed growth after 28 days; also recorded: bacterial regrowth by day 28 | without bacterial regrowth | ≤ 7 days | bactericidal effect | higher TBAJ-587 recovery |
| CC(C)NCC(O)COc1cccc2ccccc12 (stereo not shown) [Propranolol, propranolol, reference compound] | – | – | – | – | – | – | – | – | – | – | – | did not affect its recovery |

Reference: PMC13357423 (Frontiers in Microbiology, 2026)
